Test results from patent US20190076466A1, “REDUCED SODIUM POLOXAMER-188 FORMULATIONS AND METHODS FOR USE” (MAST THERAPEUTICS, INC., priority 2015, published 2019).

Experiment: osmolality by vapor pressure osmometry
Conditions: no poloxamer
Procedure: The osmolality of LCMF poloxamer 188 in water was evaluated over the range 25 mg/mL to 400 mg/mL using vapor pressure osmometry (Table 7). […] Any solutions with osmolality values below 270 mOsm/kg or above 300 mOsm/kg are considered hypotonic and hypertonic respectively.
Drug substance was added to sterile water for injection at 6 concentrations ranging from 15% to 40% and the osmolality values of the solutions were recorded. Sodium chloride was then added to sterile water for injection to make six sodium chloride solutions with osmolality values matching those of the poloxamer 188 solutions. An isotonic 15% poloxamer 188 solution was used as a comparator.

`[Cl-].[Na+]` [NaCl, Sodium chloride] showed an Osmolality (0.36% (w/w) NaCl in SWFI) of 116 mOsm/kg, an Osmolality (0.74% (w/w) NaCl in SWFI) of 224 mOsm/kg and an Osmolality (1.35% (w/w) NaCl in SWFI) of 432 mOsm/kg. For the same compound, the Osmolality (3.13% (w/w) NaCl in SWFI) was 995 mOsm/kg and the Osmolality ([…] (w/w) NaCl in SWFI) was 690 mOsm/kg.
